Test results from patent US20250339389A1, “N-ARACHIDONOYL ETHANOLAMINE COMPOSITION AND USE THEREOF” (NANJING NUTRABUILDING BIO-TECH CO., LTD., priority 2023, published 2025).

Legend:
[1] = system: mood and depressive behavior; assay: Forced swimming test; assay type: in vivo, C57BL/6J mice; conditions: AEA 20 mg/kg/day
Procedure: (§1) Experimental materials: The experimental animals used in this experiment are male C57BL/6J mice, 6 weeks old, with an initial weight of 18-22 g and SPF grade. The feeding environment of the mice is room temperature of 22±1° C. and humidity of 55±10%, and the mice are fed with normal feed. Mice were randomly divided into blank control group and AEA group, with 10 mice in each group. The AEA group was given a dose of 20 mg/kg/day, while the blank control group was given distilled water of the same volume.
(§2) Experimental method: Tail suspension test and forced swimming test were used to evaluate mood and depressive behavior. Forced swimming test: put a single mouse into a beaker and keep the water temperature at (25±2)° C. The experiment lasted for 6 min, and the immobility time of mice within 4 min was calculated. Tail suspension test: a mouse was fixed at the back ⅓ of the tail end with adhesive tape and hung upside down on an iron bar, with its head 10 cm away from the bottom of the box. The experiment lasted for 6 min, and the immobility time of mice within 4 min was calculated.

[2] = system: acute colitis model; assay: DSS-induced acute colitis model, disease activity index (DAI); assay type: in vivo, mice; conditions: 3% DSS for 9 days, AEA daily dose 2.5 mg/kg; model group close to 3
Source text: Experimental method: Thirty 4-6-week-old mice, 15 males and 15 females, were selected for adaptive feeding for 7 days in advance. They were randomly divided into control group (CON), model group (DSS) and administration group (DSS+AEA), with 10 mice in each group. The model group and the administration group were gavaged with 3% dextran sodium sulfate (DSS) for 9 days to establish an acute colitis model, while the control group was gavaged with the same amount of normal saline every day. The weight, feces and rectal bleeding of mice were recorded every day, and the disease activity index (DAI) was used to evaluate the condition of colitis. The DAI value was obtained by adding all the scores and dividing them by three. Mice in the administration group were given AEA at a daily dose of 2.5 mg/kg. On the 10th day, blood was taken from the orbit of each mouse, and then it was killed. Colon tissues were collected, fixed in 4% paraformaldehyde solution and stored at −80° C. for subsequent analysis. The pathological damage of colon tissue was examined by hematoxylin-eosin staining and Alxin blue staining.

[3] = system: Salmonella; assay: Relative abundance of Salmonella in feces of high-fat diet mice (16S rDNA sequencing); assay type: in vivo; conditions: obese mice induced by high-fat diet, AEA 20 mg/kg once a day, four weeks
Procedure: (§3) After a week of adaptive feeding, mice were randomly divided into three groups according to sex and weight: group 1, normal group, n=10; group 2, high-fat diet group, n=10; and group 3, high-fat diet+AEA group, n=10. The normal group was given normal feed, while the high-fat diet group was given high-fat and high-sugar feed (containing 35% fat, 18% protein and 47% carbohydrate), and the high-fat diet+AEA group was given high-fat and high-sugar feed containing AEA (20 mg/kg), for four weeks. The specific gavage scheme is: calculate and gavage once a day according to the weight of mice, while the normal group gavage with the same amount of normal saline. Four samples of mouse feces were randomly taken from each group. The samples were first extracted for DNA, 16S rDNA was amplified by PCR, and then sequenced, and the relative abundance of each strain was analyzed.
(§4) FIG. 2 is a graph showing changes in the relative abundance of Roseburia. […] FIG. 3 is a graph showing changes in the relative abundance of Bacteroides. […] After AEA treatment, the level of Bacteroides in obese mice induced by high-fat diet increased by 20%. FIG. 4 is a graph showing changes in the relative abundance of Prevotella. […] After AEA treatment, the level of Prevotella in obese mice induced by high-fat diet increased by 25%. FIG. 5 is a graph showing changes in the relative abundance of Salmonella. […]

[4] = system: Roseburia; assay: Relative abundance of Roseburia in feces of high-fat diet mice (16S rDNA sequencing); assay type: in vivo; conditions: high-fat+AEA group, AEA 20 mg/kg once a day, four weeks
Procedure: as §3, §4

[5] = system: mechanical pain sensitivity; assay: SNL model (L5 spinal nerve ligation), Von Frey mechanical pain sensitivity; assay type: in vivo, ICR mice
Procedure: Experimental material: The experimental animals used in this experiment are male ICR mice, with an initial weight of 30±2 g and SPF grade. The feeding environment of the mice is room temperature of 22±2° C., and the humidity is controlled at 70%-80%. Mice were free to drink water and eat, and fed with normal feed.
Experimental method: Preparation of animal model: Establishment of SNL model of ligation of the fifth spinal nerve on the left lumbar vertebra in mice: After the animals were anesthetized with isoflurane, the L5 transverse process on the left back was exposed, the L5 nerve was dissociated and ligated with No.6 ophthalmic thread, and the wound was treated with penicillin and then sutured. In Sham group, only L5 transverse process was exposed without nerve ligation. After the model was established, the behavior of mice was observed, and the individuals with impaired motor behavior were excluded. […] Grouping and administration: Mice were randomly divided into Sham group, model group and AEA group (20 mg/kg/day), with 8 mice in each group. The three groups were administered by gavage for 16 d, wherein the Sham group and model group were given the same volume of distilled water by gavage. Von Frey method was used to detect the mechanical pain sensitivity of mice: after administration, the mice were placed in an organic glass box in a quiet room to adapt for 1.5 h, so that the mice were in a resting state. Von Frey fibers were used to continuously stimulate the L5 nerve reflex area on the sole of the operated hind limb for 3˜4 s, and the test was conducted for 4 times, with an interval of 5 min each time, and the threshold of 50% mechanical foot retraction of the hind paw was recorded.

[6] = system: Bacteroides/Firmicutes; assay: Relative abundance ratio of Bacteroides and Firmicutes in feces of high-fat diet mice (16S rDNA sequencing); assay type: in vivo; conditions: obese mice induced by high-fat diet, AEA 20 mg/kg once a day, four weeks
Procedure: as §3
Abundance ratio of Bacteroides and Firmicutes: Bacteroides is the representative of intestinal probiotics and Firmicutes is the representative of intestinal harmful bacteria. The higher the ratio, the healthier the intestinal flora is.

[7] = system: Escherichia coli; assay: Relative abundance of Escherichia coli in feces of high-fat diet mice (16S rDNA sequencing); assay type: in vivo; conditions: obese mice induced by high-fat diet, AEA 20 mg/kg once a day, four weeks
Procedure: as §3, §4

[8] = system: Bacteroides; assay: Relative abundance of Bacteroides in feces of high-fat diet mice (16S rDNA sequencing); assay type: in vivo; conditions: obese mice induced by high-fat diet, AEA 20 mg/kg once a day, four weeks
Procedure: as §3, §4

[9] = system: mood and depressive behavior; assay: Tail suspension test; assay type: in vivo, C57BL/6J mice; conditions: AEA 20 mg/kg/day
Procedure: as §1, §2

[10] = system: Prevotella; assay: Relative abundance of Prevotella in feces of high-fat diet mice (16S rDNA sequencing); assay type: in vivo; conditions: obese mice induced by high-fat diet, AEA 20 mg/kg once a day, four weeks
Procedure: as §3, §4

CCCCC/C=C\C/C=C\C/C=C\C/C=C\CCCC(=O)NCCO [AEA, N-arachidonoyl ethanolamine]
reduction of immobility time compared with the blank group, forced swimming test [1]: 23%
DAI score [2]: about 2
decrease of Salmonella level after AEA treatment [3]: 20%
level (relative abundance) of Roseburia [4]: close to that in normal mice
threshold of 50% foot contraction ([5]; administration 1 d, AEA 20 mg/kg/day by gavage, SNL model 0.005 ± 0.002): 0.010 ± 0.010
threshold of 50% foot contraction ([5]; administration 6 d, AEA 20 mg/kg/day by gavage, SNL model 0.019 ± 0.008): 0.067 ± 0.013
threshold of 50% foot contraction ([5]; administration 11 d, AEA 20 mg/kg/day by gavage, SNL model 0.018 ± 0.018): 0.133 ± 0.023
threshold of 50% foot contraction ([5]; administration 16 d, AEA 20 mg/kg/day by gavage, SNL model 0.020 ± 0.018): 0.193 ± 0.002
threshold of 50% foot contraction compared with the SNL model (in words) ([5]; after 6 days of administration, AEA 20 mg/kg/day by gavage): increased significantly
threshold of 50% foot contraction ([5]; before modeling (baseline)): 0.323 ± 0.040
ratio of Bacteroides/Firmicutes [6]: increased after AEA administration, which was close to the level of normal group
decrease of level of Escherichia coli after AEA treatment [7]: 42%
increase of level of Bacteroides after AEA treatment [8]: 20%
reduction of immobility time compared with the blank group, tail suspension test [9]: 28%
increase of level of Prevotella after AEA treatment [10]: 25%
